Test results reported in ChEMBL document CHEMBL5608189, “Design and synthesis of unique indole-benzosulfonamide oleanolic acid derivatives as potent antibacterial agents against MRSA” (Eur J Med Chem, 2024).
Values after ≈ are worked out from the molar mass of the structure shown.

What was measured:
Assay type in all cases: functional
[1] = tested on: Staphylococcus epidermidis; assay: Antibacterial activity against Staphylococcus epidermidis ATCC 12228 measured after 24 hrs by susceptibility assay
Staphylococcus aureus [2] = assay: Antibacterial activity against Staphylococcus aureus ATCC 6538 measured after 24 hrs by susceptibility assay
Staphylococcus aureus [3] = assay: Antibacterial activity against Staphylococcus aureus ATCC 29213 measured after 24 hrs by susceptibility assay
Staphylococcus aureus [4] = assay: Antibacterial activity against methicillin-resistant Staphylococcus aureus measured after 24 hrs by susceptibility assay

SMILES | MIC [1] [µM] | MIC (Staphylococcus aureus [2]) [µM] | MIC (Staphylococcus aureus [3]) [µM] | MIC (Staphylococcus aureus [4]) [µM]
CN1CCN(C(=O)[C@]23CCC(C)(C)C[C@H]2C2=CC[C@@H]4[C@@]5(C)Cc6c([nH]c7ccc(C(=O)O)cc67)C(C)(C)[C@@H]5CC[C@@]4(C)[C@]2(C)CC3)CC1 | > 256 | > 256 | > 256 | > 256
CC1(C)CC[C@]2(C(=O)NS(=O)(=O)c3ccc(C(=O)O)cc3)CC[C@]3(C)C(=CC[C@@H]4[C@@]5(C)CCC(=O)C(C)(C)[C@@H]5CC[C@]43C)[C@@H]2C1 | 256 (≈ 163 µg/mL) | 64 (≈ 40.8 µg/mL) | 128 (≈ 81.6 µg/mL) | 256 (≈ 163 µg/mL)
CC1(C)CC[C@]2(C(=O)NS(=O)(=O)c3ccc(Cl)cc3)CC[C@]3(C)C(=CC[C@@H]4[C@@]5(C)Cc6c([nH]c7cc(C(=O)O)ccc67)C(C)(C)[C@@H]5CC[C@]43C)[C@@H]2C1 | 1 (≈ 0.745 µg/mL) | 0.5 (≈ 0.373 µg/mL) | 2 (≈ 1.49 µg/mL) | 2 (≈ 1.49 µg/mL)
CC1(C)CC[C@]2(C(=O)NS(=O)(=O)c3ccccc3)CC[C@]3(C)C(=CC[C@@H]4[C@@]5(C)CCC(=O)C(C)(C)[C@@H]5CC[C@]43C)[C@@H]2C1 | > 256 | 128 (≈ 76 µg/mL) | > 256 | > 256
Cc1ccc(S(=O)(=O)NC(=O)[C@]23CCC(C)(C)C[C@H]2C2=CC[C@@H]4[C@@]5(C)CCC(=O)C(C)(C)[C@@H]5CC[C@@]4(C)[C@]2(C)CC3)cc1 | > 256 | > 256 | > 256 | > 256
CC1(C)CC[C@]2(C(=O)O)CC[C@]3(C)C(=CC[C@@H]4[C@@]5(C)CC[C@H](O)C(C)(C)[C@@H]5CC[C@]43C)[C@@H]2C1 [OLEANOLIC_ACID] | 32 (≈ 14.6 µg/mL) | 32 (≈ 14.6 µg/mL) | 32 (≈ 14.6 µg/mL) | 32 (≈ 14.6 µg/mL)
COc1cccc(OC)c1C(=O)N[C@@H]1C(=O)N2[C@@H]1SC(C)(C)[C@@H]2C(=O)O [METHICILLIN] | 2 (≈ 0.761 µg/mL) | 4 (≈ 1.52 µg/mL) | 2 (≈ 0.761 µg/mL) | 256 (≈ 97.4 µg/mL)
Cc1ccc(S(=O)(=O)NC(=O)[C@]23CCC(C)(C)C[C@H]2C2=CC[C@@H]4[C@@]5(C)Cc6c([nH]c7ccc(C(=O)O)cc67)C(C)(C)[C@@H]5CC[C@@]4(C)[C@]2(C)CC3)cc1 | 1 (≈ 0.725 µg/mL) | 1 (≈ 0.725 µg/mL) | 1 (≈ 0.725 µg/mL) | 2 (≈ 1.45 µg/mL)
COc1ccc(S(=O)(=O)NC(=O)[C@]23CCC(C)(C)C[C@H]2C2=CC[C@@H]4[C@@]5(C)Cc6c([nH]c7ccc(C(=O)O)cc67)C(C)(C)[C@@H]5CC[C@@]4(C)[C@]2(C)CC3)cc1 | 2 (≈ 1.48 µg/mL) | 0.5 (≈ 0.371 µg/mL) | 2 (≈ 1.48 µg/mL) | 2 (≈ 1.48 µg/mL)
CC1(C)CC[C@]2(C(=O)Nc3ccc(-c4ccccc4)cc3)CC[C@]3(C)C(=CC[C@@H]4[C@@]5(C)Cc6c([nH]c7cccc(C(=O)O)c67)C(C)(C)[C@@H]5CC[C@]43C)[C@@H]2C1 | 64 (≈ 46.3 µg/mL) | 32 (≈ 23.1 µg/mL) | 128 (≈ 92.5 µg/mL) | 256 (≈ 185 µg/mL)
CC1(C)CC[C@]2(C(=O)Nc3ccc(-c4ccccc4)cc3)CC[C@]3(C)C(=CC[C@@H]4[C@@]5(C)Cc6c([nH]c7ccc(C(=O)O)cc67)C(C)(C)[C@@H]5CC[C@]43C)[C@@H]2C1 | > 256 | > 256 | > 256 | > 256
Cc1ccc(S(=O)(=O)NC(=O)[C@]23CCC(C)(C)C[C@H]2C2=CC[C@@H]4[C@@]5(C)Cc6c([nH]c7cc(C(=O)O)ccc67)C(C)(C)[C@@H]5CC[C@@]4(C)[C@]2(C)CC3)cc1 | 1 (≈ 0.725 µg/mL) | 1 (≈ 0.725 µg/mL) | 2 (≈ 1.45 µg/mL) | 2 (≈ 1.45 µg/mL)
Cc1ccc(S(=O)(=O)NC(=O)[C@]23CCC(C)(C)C[C@H]2C2=CC[C@@H]4[C@@]5(C)Cc6c([nH]c7cccc(C(=O)O)c67)C(C)(C)[C@@H]5CC[C@@]4(C)[C@]2(C)CC3)cc1 | 4 (≈ 2.9 µg/mL) | 1 (≈ 0.725 µg/mL) | 4 (≈ 2.9 µg/mL) | 4 (≈ 2.9 µg/mL)
CC1(C)CC[C@]2(C(=O)NS(=O)(=O)c3ccccc3)CC[C@]3(C)C(=CC[C@@H]4[C@@]5(C)Cc6c([nH]c7ccc(Cl)cc67)C(C)(C)[C@@H]5CC[C@]43C)[C@@H]2C1 | > 256 | > 256 | > 256 | > 256
CC1(C)CC[C@]2(C(=O)NS(=O)(=O)c3ccc(C(=O)O)cc3)CC[C@]3(C)C(=CC[C@@H]4[C@@]5(C)Cc6c([nH]c7cccc(C(=O)O)c67)C(C)(C)[C@@H]5CC[C@]43C)[C@@H]2C1 | 256 (≈ 193 µg/mL) | 64 (≈ 48.3 µg/mL) | 128 (≈ 96.6 µg/mL) | 256 (≈ 193 µg/mL)
CC1(C)CC[C@]2(C(=O)NS(=O)(=O)c3ccccc3)CC[C@]3(C)C(=CC[C@@H]4[C@@]5(C)Cc6c([nH]c7ccccc67)C(C)(C)[C@@H]5CC[C@]43C)[C@@H]2C1 | > 256 | > 256 | > 256 | > 256
COc1ccc(S(=O)(=O)NC(=O)[C@]23CCC(C)(C)C[C@H]2C2=CC[C@@H]4[C@@]5(C)Cc6c([nH]c7cccc(C(=O)O)c67)C(C)(C)[C@@H]5CC[C@@]4(C)[C@]2(C)CC3)cc1 | 4 (≈ 2.96 µg/mL) | 2 (≈ 1.48 µg/mL) | 8 (≈ 5.93 µg/mL) | 4 (≈ 2.96 µg/mL)

SMILES | MIC [1] [µM] | MIC (Staphylococcus aureus [2]) [µM] | MIC (Staphylococcus aureus [3]) [µM] | MIC (Staphylococcus aureus [4]) [µM]
CN1CCN(C(=O)[C@]23CCC(C)(C)C[C@H]2C2=CC[C@@H]4[C@@]5(C)Cc6c([nH]c7cccc(C(=O)O)c67)C(C)(C)[C@@H]5CC[C@@]4(C)[C@]2(C)CC3)CC1 | > 256 | > 256 | > 256 | > 256
CN1CCN(C(=O)[C@]23CCC(C)(C)C[C@H]2C2=CC[C@@H]4[C@@]5(C)CCC(=O)C(C)(C)[C@@H]5CC[C@@]4(C)[C@]2(C)CC3)CC1 | 64 (≈ 34.4 µg/mL) | 64 (≈ 34.4 µg/mL) | 32 (≈ 17.2 µg/mL) | > 256
CC1(C)CC[C@]2(C(=O)Nc3ccc(-c4ccccc4)cc3)CC[C@]3(C)C(=CC[C@@H]4[C@@]5(C)CCC(=O)C(C)(C)[C@@H]5CC[C@]43C)[C@@H]2C1 | > 256 | > 256 | > 256 | > 256
CC1(C)CC[C@]2(C(=O)NS(=O)(=O)c3ccc(Cl)cc3)CC[C@]3(C)C(=CC[C@@H]4[C@@]5(C)Cc6c([nH]c7cccc(C(=O)O)c67)C(C)(C)[C@@H]5CC[C@]43C)[C@@H]2C1 | 2 (≈ 1.49 µg/mL) | 1 (≈ 0.745 µg/mL) | 2 (≈ 1.49 µg/mL) | 2 (≈ 1.49 µg/mL)
CC1(C)CC[C@]2(C(=O)NS(=O)(=O)c3ccc(C(=O)O)cc3)CC[C@]3(C)C(=CC[C@@H]4[C@@]5(C)Cc6c([nH]c7c(C(=O)O)cccc67)C(C)(C)[C@@H]5CC[C@]43C)[C@@H]2C1 | 1 (≈ 0.755 µg/mL) | 0.5 (≈ 0.377 µg/mL) | 2 (≈ 1.51 µg/mL) | 1 (≈ 0.755 µg/mL)
CC1(C)CC[C@]2(C(=O)NS(=O)(=O)c3ccc(Cl)cc3)CC[C@]3(C)C(=CC[C@@H]4[C@@]5(C)Cc6c([nH]c7ccc(C(=O)O)cc67)C(C)(C)[C@@H]5CC[C@]43C)[C@@H]2C1 | 1 (≈ 0.745 µg/mL) | 0.5 (≈ 0.373 µg/mL) | 1 (≈ 0.745 µg/mL) | 1 (≈ 0.745 µg/mL)
CC1(C)CC[C@]2(C(=O)NS(=O)(=O)c3ccc(Cl)cc3)CC[C@]3(C)C(=CC[C@@H]4[C@@]5(C)CCC(=O)C(C)(C)[C@@H]5CC[C@]43C)[C@@H]2C1 | 4 (≈ 2.51 µg/mL) | 4 (≈ 2.51 µg/mL) | 8 (≈ 5.03 µg/mL) | 32 (≈ 20.1 µg/mL)
CN1CCN(C(=O)[C@]23CCC(C)(C)C[C@H]2C2=CC[C@@H]4[C@@]5(C)Cc6c([nH]c7cc(C(=O)O)ccc67)C(C)(C)[C@@H]5CC[C@@]4(C)[C@]2(C)CC3)CC1 | 64 (≈ 41.9 µg/mL) | > 256 | > 256 | 256 (≈ 167 µg/mL)
CC1(C)CC[C@]2(C(=O)Nc3ccc(-c4ccccc4)cc3)CC[C@]3(C)C(=CC[C@@H]4[C@@]5(C)Cc6c([nH]c7c(C(=O)O)cccc67)C(C)(C)[C@@H]5CC[C@]43C)[C@@H]2C1 | > 256 | > 256 | > 256 | > 256
COc1ccc(S(=O)(=O)NC(=O)[C@]23CCC(C)(C)C[C@H]2C2=CC[C@@H]4[C@@]5(C)Cc6c([nH]c7cc(C(=O)O)ccc67)C(C)(C)[C@@H]5CC[C@@]4(C)[C@]2(C)CC3)cc1 | 2 (≈ 1.48 µg/mL) | 1 (≈ 0.741 µg/mL) | 4 (≈ 2.96 µg/mL) | 4 (≈ 2.96 µg/mL)
COc1ccc(S(=O)(=O)NC(=O)[C@]23CCC(C)(C)C[C@H]2C2=CC[C@@H]4[C@@]5(C)Cc6c([nH]c7c(C(=O)O)cccc67)C(C)(C)[C@@H]5CC[C@@]4(C)[C@]2(C)CC3)cc1 | 2 (≈ 1.48 µg/mL) | 2 (≈ 1.48 µg/mL) | 1 (≈ 0.741 µg/mL) | 4 (≈ 2.96 µg/mL)
CC(=O)c1cccc2[nH]c3c(c12)C[C@]1(C)[C@H]2CC=C4[C@@H]5CC(C)(C)CC[C@]5(C(=O)NS(=O)(=O)c5ccccc5)CC[C@@]4(C)[C@]2(C)CC[C@H]1C3(C)C | 2 (≈ 1.42 µg/mL) | 4 (≈ 2.84 µg/mL) | 4 (≈ 2.84 µg/mL) | 4 (≈ 2.84 µg/mL)
CC(=O)c1ccc2c3c([nH]c2c1)C(C)(C)[C@@H]1CC[C@]2(C)[C@H](CC=C4[C@@H]5CC(C)(C)CC[C@]5(C(=O)NS(=O)(=O)c5ccccc5)CC[C@]42C)[C@@]1(C)C3 | 2 (≈ 1.42 µg/mL) | 1 (≈ 0.709 µg/mL) | 2 (≈ 1.42 µg/mL) | 2 (≈ 1.42 µg/mL)
CN1CCN(C(=O)[C@]23CCC(C)(C)C[C@H]2C2=CC[C@@H]4[C@@]5(C)Cc6c([nH]c7c(C(=O)O)cccc67)C(C)(C)[C@@H]5CC[C@@]4(C)[C@]2(C)CC3)CC1 | 128 (≈ 83.7 µg/mL) | > 256 | > 256 | > 256
CC1(C)CC[C@]2(C(=O)NS(=O)(=O)c3ccc(C(=O)O)cc3)CC[C@]3(C)C(=CC[C@@H]4[C@@]5(C)Cc6c([nH]c7cc(C(=O)O)ccc67)C(C)(C)[C@@H]5CC[C@]43C)[C@@H]2C1 | 4 (≈ 3.02 µg/mL) | 1 (≈ 0.755 µg/mL) | 2 (≈ 1.51 µg/mL) | 2 (≈ 1.51 µg/mL)
COc1ccc(S(=O)(=O)NC(=O)[C@]23CCC(C)(C)C[C@H]2C2=CC[C@@H]4[C@@]5(C)CCC(=O)C(C)(C)[C@@H]5CC[C@@]4(C)[C@]2(C)CC3)cc1 | > 256 | > 256 | > 256 | > 256
CC1(C)CC[C@]2(C(=O)NS(=O)(=O)c3ccccc3)CC[C@]3(C)C(=CC[C@@H]4[C@@]5(C)Cc6c([nH]c7ccc(Br)cc67)C(C)(C)[C@@H]5CC[C@]43C)[C@@H]2C1 | > 256 | > 256 | > 256 | > 256
